The target in assay [1] is T1, human 5-hydroxytryptamine-2C (h-5-HT2C) receptor (Homo sapiens, UniProt P28335).
T1 sequence (P28335 33-458): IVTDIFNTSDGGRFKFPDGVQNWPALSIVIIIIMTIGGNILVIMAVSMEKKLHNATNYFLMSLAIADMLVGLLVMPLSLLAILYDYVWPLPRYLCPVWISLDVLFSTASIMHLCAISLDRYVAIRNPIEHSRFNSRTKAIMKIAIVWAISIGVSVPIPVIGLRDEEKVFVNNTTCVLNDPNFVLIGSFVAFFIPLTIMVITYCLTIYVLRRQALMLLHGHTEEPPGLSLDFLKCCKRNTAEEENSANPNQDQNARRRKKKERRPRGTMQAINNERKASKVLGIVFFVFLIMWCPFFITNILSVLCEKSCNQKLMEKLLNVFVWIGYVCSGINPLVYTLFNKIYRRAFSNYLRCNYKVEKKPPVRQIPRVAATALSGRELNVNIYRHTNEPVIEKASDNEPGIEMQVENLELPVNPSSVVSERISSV
Description: [125I]DOI binding to membranes of CHO cells expressing the h-5-HT2C receptor.

A further assay concerns the target T2, human 5-HT2C receptor (Homo sapiens, UniProt P28335).
T2 sequence (P28335 33-458): T1 sequence (P28335 33-458)
Description: 5-HT2C receptor-stimulated calcium mobilization (FLIPR) in CHO cells. In kind it is cell-based. The conditions noted are these: for Emax: CHO, read-out: 5-HT2C Function Emax (%). In general terms: Calcium assays in cells follow changes in intracellular calcium, usually with a dye or a luminescent sensor.

Where [2] appears, read: 5-HT2c Affinity KI (nM), displacement of [125I]DOI, CHO cell membranes.
The mark [3] stands for this setting: calcium mobilization, CHO cells stably expressing human 5-HT2C, read-out: 5-HT2C Function EC50.

Where two headings read alike, the source gives them in different places.

One may read the Ki as a measure of affinity in units of concentration, obtained from inhibition or displacement. A word on the EC50: it is the midpoint of the concentration-response curve. By Emax is commonly meant the size of the effect at its maximum, as opposed to the concentration needed. The term Kd denotes the equilibrium constant for the complex coming apart.

`Fc1ccc2c3c1[C@H]1CCCC[C@H]1N3CCNCC2` (single isomer, unassigned) [Example 32, (+)-(8bR*,12aR*)-8-Fluoro-2,3,4,5,8b,9,10,11,12,12a-decahydro-1H-[1,4]diazocino[7,8,1-jk]carbazole]: in assay [1] (setting [2]), the Ki was 2 nM.
The same measure, in the same setting: the same measure for `Fc1ccc2c3c1[C@H]1CCCC[C@H]1N3CCNCC2` (single isomer, unassigned) [Example 33, (−)-(8bR*,12aR*)-8-Fluoro-2,3,4,5,8b,9,10,11,12,12a-decahydro-1H-[1,4]diazocino[7,8,1-jk]carbazole]: 1.4 nM; for `Clc1ccc2c3c1[C@H]1CCCC[C@H]1N3CCNCC2` (single isomer, unassigned) [Example 42, (+)-(8bR*,12aR*)-8-Chloro-2,3,4,5,8b,9,10,11,12,12a-decahydro-1H-[1,4]diazocino[7,8,1-jk]carbazole]: 5.1 nM; for `Clc1ccc2c3c1[C@H]1CCCC[C@H]1N3CCNCC2` (single isomer, unassigned) [Example 43, (−)-(8bR*,12aR*)-8-Chloro-2,3,4,5,8b,9,10,11,12,12a-decahydro-1H-[1,4]diazocino[7,8,1-jk]carbazole]: 7 nM.
For `c1cc2c3c(c1)[C@H]1CCC[C@H]1N3CCNCC2` (single isomer, unassigned) [Example 45, (+)-(8bR*,11aR*)-2,3,4,5,9,10,11,11a-Octahydro-1H,8bH-cyclopenta[b][1,4]diazocino[7,8,1-hi]indole], in assay [1] (setting [2]), the Ki turned out to be 362 nM.
In assay [1] (setting [2]), `c1cc2c3c(c1)[C@H]1CCC[C@H]1N3CCNCC2` (single isomer, unassigned) [Example 46, (−)-(8bR*,11aR*)-2,3,4,5,9,10,11,11a-Octahydro-1H,8bH-cyclopenta[b][1,4]diazocino[7,8,1-hi]indole] displayed a Ki of 19 nM. At human 5-HT2C receptor, the concentration for a half-maximal effect (EC50) turned out to be 38 nM and the Emax was 70%.
`c1cc2c3c(c1)[C@H]1CCCC[C@H]1N3CCNCC2` (single isomer, unassigned) [Example 47, (+)-(8bR*,12aR*)-2,3,4,5,8b,9,10,11,12,12a-Decahydro-1H-[1,4]diazocino[7,8,1-jk]carbazole] came in with a Ki in assay [1] (setting [2]) of 135 nM.
As for `c1cc2c3c(c1)[C@H]1CCCC[C@H]1N3CCNCC2` (single isomer, unassigned) [Example 48, (−)-(8bR*,12aR*)-2,3,4,5,8b,9,10,11,12,12a-Decahydro-1H[1,4]diazocino[7,8,1-jk]carbazole], in assay [1] (setting [2]), the Ki came out at 17 nM. Besides, on human 5-HT2C receptor, the EC50 worked out at 42 nM and the maximum response (Emax) was 70%.
The like results for `c1cc2c3c(c1)c1c(n3CCNCC2)CCC1` [Example 2, 2,3,4,5,10,11-Hexahydro-1H,9H-cyclopenta[b][1,4]diazocino[7,8,1-hi]indole] were, in that order, 38 nM, 20 nM and 80%.
The like results for `CN1CCc2cccc3c2N(CC1)C1CCCC31` (centres unmarked) [Example 3, 3-Methyl-2,3,4,5,9,10,11,11a-octahydro-1H,8bH-cyclopenta[b][1,4]diazocino[7,8,1-hi]indole] were, in that order, 41 nM, 37 nM and 50%.
The like results for `c1cc2c3c(c1)C1CCCC1N3CCNCC2` (centres unmarked) [Example 4, 2,3,4,5,9,10,11,11a-Octahydro-1H,8bH-cyclopenta[b][1,4]diazocino[7,8,1-hi]indole] were, in that order, 31 nM, 18 nM and 90%.
Turning to `c1cc2c3c(c1)c1c(n3CCNCC2)CCCC1` [Example 6, 2,3,4,5,9,10,11,12-Octahydro-1H-[1,4]diazocino[7,8,1-jk]carbazole], affinity in assay [1] (setting [2]) was put at a Ki of 4 nM. In addition, on human 5-HT2C receptor, the EC50 was determined as 6 nM and the Emax was found to be 80%.
The like results for `CN1CCc2cccc3c2N(CC1)C1CCCCC31` (centres unmarked) [Example 7, 3-Methyl-2,3,4,5,8b,9,10,11,12,12a-decahydro-1H-[1,4]diazocino[7,8,1-jk]carbazole] were, in that order, 24 nM, 74 nM and 60%.
Regarding `c1cc2c3c(c1)C1CCCCC1N3CCNCC2` (centres unmarked) [Example 8, 2,3,4,5,8b,9,10,11,12,12a-Decahydro-1H-[1,4]diazocino[7,8,1-jk]carbazole], in assay [1] (setting [2]), the Ki was 22 nM. For the same compound, on human 5-HT2C receptor, the EC50 is 18 nM and the Emax is 80%.
On to `CN1CCc2cccc3c4c(n(c23)CC1)CCCCC4` [Example 9, 3-Methyl-2,3,4,5,10,11,12,13-octahydro-1H,9H-cyclohepta[b][1,4]diazocino[7,8,1-hi]indole], for which, in assay [1] (setting [2]), the Ki was 19 nM. The Emax on human 5-HT2C receptor was 25%. In addition, the EC50 on human 5-HT2C receptor (setting [3]) was determined as 275 nM.
The matching figures for `c1cc2c3c(c1)c1c(n3CCNCC2)CCCCC1` [Example 10, 2,3,4,5,10,11,12,13-Octahydro-1H,9H-cyclohepta[b]1,4]diazocino[7,8,1-hi]indole]: 38 nM, 90% and 156 nM.
As to `CN1CCc2c(Cl)ccc3c2N(CC1)C1CCCC31` (centres unmarked) [Example 15, 6-Chloro-3-Methyl-2,3,4,5,9,10,11,11a-octahydro-1H,8bH-cyclopenta[b][1,4]diazocino[7,8,1-hi]indole], in assay [1] (read-out: 5-HT2c Affinity KI), the Ki was determined as 131 nM.
`CN1CCc2c(Cl)ccc3c2N(CC1)C1CCCCCC31` (centres unmarked) [Example 16, 6-Chloro-3-methyl-2,3,4,5,9,10,11,12,13,13a-decahydro-1H,8bH-cyclohepta[b][1,4]diazocino[7,8,1-hi]indole]: affinity in assay [1] (setting [2]) was put at a Ki of 84 nM.
On to `Clc1ccc2c3c(n4c2c1CCNCC4)CCC3` [Example 17, 6-Chloro-2,3,4,5,10,11-hexahydro-1H,9H-cyclopenta[b][1,4]diazocino[7,8,1-hi]indole], for which the Ki in assay [1] (read-out: 5-HT2c Affinity KI) turned out to be 156 nM.
In the case of `Clc1ccc2c3c(n4c2c1CCNCC4)CCCC3` [Example 18, 6-Chloro-2,3,4,5,9,10,11,12-octahydro-1H-[1,4]diazocino[7,8,1-jk]carbazole], the Ki in assay [1] (setting [2]) was 83 nM.
`Clc1ccc2c3c(n4c2c1CCNCC4)CCCCC3` [Example 19, 6-Chloro-2,3,4,5,10,11,12,13-octahydro-1H,9H-cyclohepta[b][1,4]diazocino[7,8,1-hi]indole]: the Ki in assay [1] (read-out: 5-HT2c Affinity KI) was found to be 4970 nM.
For the compound `Clc1ccc2c3c1CCNCCN3C1CCCC21` (centres unmarked) [Example 20, 6-Chloro-2,3,4,5,9,10,11,11a-octahydro-1H,8bH-cyclopenta[b][1,4]diazocino[7,8,1-hi]indole], the Ki in assay [1] (read-out: 5-HT2c Affinity KI) was found to be 111 nM.
The same measure, in the same setting: as for `CCN1CCc2c(Cl)ccc3c2N(CC1)C1CCCC31` (centres unmarked) [Example 21, 6-Chloro-3-ethyl-2,3,4,5,9,10,11,11a-octahydro-1H,8bH-cyclopenta[b][1,4]diazocino[7,8,1-hi]indole], the figure is 137 nM.
Compound `Clc1ccc2c3c1CCNCCN3C1CCCCCC21` (centres unmarked) [Example 22, 6-Chloro-2,3,4,5,9,10,11,12,13,13a-decahydro-1H,8bH-cyclohepta[b][1,4]diazocino[7,8,1-hi]indole] registered a Ki in assay [1] (setting [2]) of 50 nM. Moreover, the Emax on human 5-HT2C receptor is 60%. For the same compound, at human 5-HT2C receptor (setting [3]), the EC50 worked out at 326 nM.
With `CCN1CCc2c(Cl)ccc3c2N(CC1)C1CCCCC31` (centres unmarked) [Example 23, 6-Chloro-3-ethyl-2,3,4,5,8b,9,10,11,12,12a-decahydro-1H-[1,4]diazocino[7,8,1-jk]carbazole], the Ki in assay [1] (read-out: 5-HT2c Affinity KI) was 116 nM.
With `CN1CCc2ccc(F)c3c4c(n(c23)CC1)CCC4` [Example 24, 8-Fluoro-3-methyl-2,3,4,5,10,11-hexahydro-1H,9H-cyclopenta[b][1,4]diazocino[7,8,1-hi]indole], in assay [1] (setting [2]), the affinity corresponds to a Ki of 93 nM.
Same read-out and setting: the same measure for `CN1CCc2ccc(F)c3c4c(n(c23)CC1)CCCC4` [Example 25, 8-Fluoro-3-methyl-2,3,4,5,9,10,11,12-octahydro-1H-[1,4]diazocino[7,8,1-jk]carbazole]: 68 nM.
With `CN1CCc2ccc(F)c3c2N(CC1)C1CCCC31` (centres unmarked) [Example 26, 8-Fluoro-3-methyl-2,3,4,5,9,10,11,11a-octahydro-1H,8bH-cyclopenta[b][1,4]diazocino[7,8,1-hi]indole], the Ki in assay [1] (read-out: 5-HT2c Affinity KI) was determined as 176 nM.
In the case of `CN1CCc2ccc(F)c3c2N(CC1)C1CCCCC31` (centres unmarked) [Example 27, 8-Fluoro-3-methyl-2,3,4,5,8b,9,10,11,12,12a-decahydro-1H-[1,4]diazocino[7,8,1-jk]carbazole], the Ki in assay [1] (setting [2]) is 13 nM. Further, on human 5-HT2C receptor, the Emax was found to be 70%. Also, the EC50 on human 5-HT2C receptor (setting [3]) worked out at 261 nM.
Consider `Fc1ccc2c3c1c1c(n3CCNCC2)CCC1` [Example 28, 8-Fluoro-2,3,4,5,10,11-hexahydro-1H,9H-cyclopenta[b][1,4]diazocino[7,8,1-hi]indole], for which affinity in assay [1] (setting [2]) was put at a Ki of 12 nM. Further, at human 5-HT2C receptor, the concentration giving a half-maximal response (EC50) came to 36 nM and the Emax was found to be 80%.
Turning to `CN1CCc2cccc3c2N(CC1)C1CCSCC31` (centres unmarked) [Example 44, 3-Methyl-2,3,4,5,9,10,11,12-octahydro-1H,9H-[1,4]diazocino[7,8,1-hi]thiopyrano[4,3-b]indole], the Ki in assay [1] (read-out: 5-HT2c Affinity KI) came to 1720 nM.
For `CSc1ccc2c(c1)C(N1CCN(C)CC1)Cc1ccccc1S2` (centres unmarked) [Methiothepin, reference compound], the Ki in assay [1] (reference compounds, displacement of [125I]DOI, CHO cell membranes, read-out: Ki (95% confidence interval)) was found to be 4.6 nM.
For the compound `COc1cc(CC(C)N)c(OC)cc1I` (centres unmarked) [[^125I] DOI, reference compound], the Kd in assay [1] (saturation binding with increasing concentrations of [125I]DOI, read-out: dissociation constant, KD) came out at 0.4 nM.
